In ChEMBL document CHEMBL1201862, “PubChem BioAssay data set” (2004):
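All cell lines were grown in 96-well plates and treated with compound for 48 hours. GI50: concentration for 50% inhibition of growth.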 Activity calls are given as the source filed them. No stated cut-off is given here; in the data, active = GI50 up to about 1.1 µM and inactive = higher.

Assays:
Experiment in all cases: DTP human tumour cell line panel, 48 h
KM-20L2 = tested on: KM-20L2
DMS-273 = tested on: DMS-273
M19-MEL = tested on: M19-MEL
SNB-78 = tested on: SNB-78
DMS-114 = tested on: DMS-114
HOP-18 = tested on: HOP-18
RXF 631 = tested on: RXF 631
LXFL 529 = tested on: LXFL 529
DLD-1 = tested on: DLD-1

Q: Which results are given for `Cn1c(=O)nc2n(-c3cc(C(F)(F)F)cc(C(F)(F)F)c3)c3ccccc3nc-2c1=O`?
A: GI50 (KM-20L2): > 100 µM (inactive); GI50 (DMS-273): 45.7 µM (inactive); GI50 (M19-MEL): 13.8 µM (inactive); GI50 (SNB-78): > 100 µM (inactive); GI50 (DMS-114): 26.3 µM (inactive)

Q: With `C=C[C@]1(C)CCC2=C(CCC3C2(C)CCC[C@@]3(C)COC(C)=O)C1` (some centres undefined) as the compound, how does the GI50 (KM-20L2) read?
A: The GI50 was 17.5 µM (inactive).

Q: And the GI50 (M19-MEL)?
A: The GI50 was 21.7 µM (inactive).

Q: And the GI50 (HOP-18)?
A: The GI50 was 25.9 µM (inactive).

Q: And the GI50 (RXF 631)?
A: Its GI50 is 16.7 µM (inactive).

Q: What about the GI50 (SNB-78) of the same compound?
A: Its GI50 is 18.7 µM (inactive).

Q: What about the GI50 (LXFL 529) of the same compound?
A: The GI50 was 17.5 µM (inactive).

Q: What about the GI50 (DLD-1) of the same compound?
A: The GI50 was 18.5 µM (inactive).

Q: What about the GI50 (DMS-114) of the same compound?
A: Its GI50 is 22 µM (inactive).

Q: Which results are given for `CCOC(=O)C(=O)Nc1ccc(Cl)c(C(F)(F)F)c1`?
A: GI50 (KM-20L2): > 100 µM (inactive); GI50 (DMS-273): > 100 µM (inactive); GI50 (M19-MEL): > 100 µM (inactive); GI50 (HOP-18): > 100 µM (inactive); GI50 (RXF 631): > 100 µM (inactive); GI50 (SNB-78): > 100 µM (inactive); GI50 (LXFL 529): > 100 µM (inactive); GI50 (DLD-1): > 100 µM (inactive); GI50 (DMS-114): > 100 µM (inactive)

Q: Which GI50 (KM-20L2) does the source give for `O=C1c2ccccc2NC1(c1ccccc1)c1c(-c2ccccc2)[nH]c2ccccc12` (centres undefined) here?
A: The GI50 was 25.1 µM (inactive).

Q: And the GI50 (DMS-273)?
A: The GI50 was 6.84 µM (inactive).

Q: And the GI50 (M19-MEL)?
A: The GI50 was 24.3 µM (inactive).

Q: What about the GI50 (HOP-18) of the same compound?
A: The GI50 was 44.8 µM (inactive).

Q: And the GI50 (RXF 631)?
A: The GI50 was 9.73 µM (inactive).

Q: What about the GI50 (SNB-78) of the same compound?
A: The GI50 was 33.6 µM (inactive).

Q: What about the GI50 (LXFL 529) of the same compound?
A: The GI50 was 20.4 µM (inactive).

Q: And the GI50 (DLD-1)?
A: Its GI50 is 9.2 µM (inactive).

Q: What about the GI50 (DMS-114) of the same compound?
A: The GI50 was 15.3 µM (inactive).

Q: What does the source list for `NCCCN(CCCN)CCCNCc1c2ccccc2c(CNCCCN(CCCN)CCCN)c2ccccc12`?
A: GI50 (KM-20L2): 25.2 µM (inactive); GI50 (DMS-273): 6.08 µM (inactive); GI50 (M19-MEL): 7.59 µM (inactive); GI50 (HOP-18): 6.73 µM (inactive); GI50 (RXF 631): 16 µM (inactive); GI50 (SNB-78): 30.8 µM (inactive); GI50 (LXFL 529): 10.5 µM (inactive); GI50 (DLD-1): 14.7 µM (inactive)

Q: With `O=C(Nc1ccccc1-c1nn(CO)c(=S)n(CO)c1=O)C(F)(F)F` as the compound, how does the GI50 (DMS-273) read?
A: The GI50 was > 100 µM (inactive).

Q: And the GI50 (SNB-78)?
A: Its GI50 is > 100 µM (inactive).

Q: What about the GI50 (LXFL 529) of the same compound?
A: Its GI50 is > 100 µM (inactive).

Q: What about the GI50 (DLD-1) of the same compound?
A: The GI50 was 95.7 µM (inactive).

Q: What about the GI50 (DMS-114) of the same compound?
A: Its GI50 is > 100 µM (inactive).

Q: For `O=C1C(O)=C(CN(CCCl)CCCl)C(=O)c2ccccc21`, which GI50 (KM-20L2) is on record?
A: The GI50 was 28.7 µM (inactive).

Q: What about the GI50 (M19-MEL) of the same compound?
A: The GI50 was 54.6 µM (inactive).

Q: What about the GI50 (RXF 631) of the same compound?
A: The GI50 was 87.9 µM (inactive).

Q: What about the GI50 (SNB-78) of the same compound?
A: The GI50 was 70.8 µM (inactive).

Q: What about the GI50 (LXFL 529) of the same compound?
A: Its GI50 is 48.3 µM (inactive).

Q: And the GI50 (DLD-1)?
A: Its GI50 is 44.3 µM (inactive).

Q: Which results are given for `CC(C)C(Sc1nc(-c2ccccc2)c(-c2ccccc2)[nH]1)C(=O)N/N=C/c1ccc([N+](=O)[O-])cc1` (centres undefined)?
A: GI50 (KM-20L2): 15.1 µM (inactive); GI50 (DMS-273): 12 µM (inactive); GI50 (M19-MEL): 11.6 µM (inactive); GI50 (SNB-78): 24.8 µM (inactive); GI50 (LXFL 529): 9.98 µM (inactive); GI50 (DLD-1): 30.8 µM (inactive); GI50 (DMS-114): 25.9 µM (inactive)

Q: How did the GI50 (KM-20L2) turn out when `CC(C)=CC(C(O)c1ccccc1)S(=O)(=O)c1nccn1C` (centres undefined) was run?
A: The GI50 was > 100 µM (inactive).

Q: And the GI50 (DMS-273)?
A: The GI50 was > 100 µM (inactive).

Q: And the GI50 (M19-MEL)?
A: Its GI50 is > 100 µM (inactive).

Q: What about the GI50 (HOP-18) of the same compound?
A: Its GI50 is > 100 µM (inactive).

Q: And the GI50 (RXF 631)?
A: The GI50 was > 100 µM (inactive).

Q: And the GI50 (LXFL 529)?
A: Its GI50 is > 100 µM (inactive).

Q: And the GI50 (DLD-1)?
A: The GI50 was > 100 µM (inactive).

Q: And the GI50 (DMS-114)?
A: Its GI50 is > 100 µM (inactive).

Q: Which results are given for `COc1c2c(cc3nc4ccccc4nc13)CCC(C(C)(C)O)C2` (centres undefined)?
A: GI50 (KM-20L2): > 100 µM (inactive); GI50 (DMS-273): 63.4 µM (inactive); GI50 (M19-MEL): > 100 µM (inactive); GI50 (HOP-18): 86.5 µM (inactive); GI50 (SNB-78): > 100 µM (inactive); GI50 (LXFL 529): > 100 µM (inactive); GI50 (DLD-1): > 100 µM (inactive)

Q: Which results are given for `CC(C)C1=Cc2ccc3c(c2C(=O)C1=O)CCCC3`?
A: GI50 (KM-20L2): 19.1 µM (inactive); GI50 (DMS-273): 2.21 µM (inactive); GI50 (M19-MEL): 2.9 µM (inactive); GI50 (HOP-18): 3.51 µM (inactive); GI50 (RXF 631): 9.91 µM (inactive); GI50 (SNB-78): 4.93 µM (inactive); GI50 (LXFL 529): 1.08 µM (active); GI50 (DLD-1): 1 µM (active); GI50 (DMS-114): 1.16 µM (inactive)

Q: For `COC/C=C\COC`, which GI50 (KM-20L2) is on record?
A: Its GI50 is > 100 µM (inactive).

Q: What about the GI50 (DMS-273) of the same compound?
A: Its GI50 is > 100 µM (inactive).

Q: What about the GI50 (M19-MEL) of the same compound?
A: Its GI50 is > 100 µM (inactive).

Q: What about the GI50 (HOP-18) of the same compound?
A: Its GI50 is > 100 µM (inactive).

Q: What about the GI50 (RXF 631) of the same compound?
A: Its GI50 is > 100 µM (inactive).

Q: And the GI50 (SNB-78)?
A: The GI50 was > 100 µM (inactive).

Q: What about the GI50 (LXFL 529) of the same compound?
A: The GI50 was > 100 µM (inactive).

Q: And the GI50 (DLD-1)?
A: Its GI50 is > 100 µM (inactive).

Q: And the GI50 (DMS-114)?
A: Its GI50 is > 100 µM (inactive).

Q: `CCCCCCc1cc(C(=O)Nc2cccc(C(F)(F)F)c2)nc(N)n1` was tested. Which GI50 (KM-20L2) did it give?
A: The GI50 was > 100 µM (inactive).

Q: And the GI50 (DMS-273)?
A: The GI50 was > 100 µM (inactive).

Q: And the GI50 (M19-MEL)?
A: The GI50 was > 100 µM (inactive).

Q: And the GI50 (HOP-18)?
A: Its GI50 is > 100 µM (inactive).

Q: What about the GI50 (RXF 631) of the same compound?
A: Its GI50 is > 100 µM (inactive).

Q: What about the GI50 (SNB-78) of the same compound?
A: The GI50 was > 100 µM (inactive).

Q: And the GI50 (LXFL 529)?
A: The GI50 was > 100 µM (inactive).

Q: What about the GI50 (DLD-1) of the same compound?
A: Its GI50 is > 100 µM (inactive).

Q: What about the GI50 (DMS-114) of the same compound?
A: Its GI50 is > 100 µM (inactive).

Q: Which results are given for `Cc1nc2c(ccc3ncccc32)[nH]1`?
A: GI50 (KM-20L2): > 100 µM (inactive); GI50 (DMS-273): > 100 µM (inactive); GI50 (M19-MEL): > 100 µM (inactive); GI50 (HOP-18): > 100 µM (inactive); GI50 (LXFL 529): > 100 µM (inactive); GI50 (DLD-1): > 100 µM (inactive); GI50 (DMS-114): > 100 µM (inactive)

Q: How did the GI50 (KM-20L2) turn out when `COC12CCC(=O)C=C1c1ccccc1N2C(C)=O` (centres undefined) was run?
A: Its GI50 is > 100 µM (inactive).

Q: And the GI50 (DMS-273)?
A: The GI50 was > 100 µM (inactive).

Q: And the GI50 (M19-MEL)?
A: The GI50 was > 100 µM (inactive).

Q: And the GI50 (HOP-18)?
A: The GI50 was > 100 µM (inactive).

Q: What about the GI50 (SNB-78) of the same compound?
A: The GI50 was > 100 µM (inactive).

Q: And the GI50 (LXFL 529)?
A: Its GI50 is > 100 µM (inactive).

Q: And the GI50 (DLD-1)?
A: Its GI50 is > 100 µM (inactive).

Q: What about the GI50 (DMS-114) of the same compound?
A: Its GI50 is > 100 µM (inactive).
